Values after ≈ are worked out from the molar mass of the structure shown.

Results on 18 compounds are retold here after patent EP4480314A1, “BENEFICIAL SALTS FOR ENHANCING BIOCONTROL EFFICACY OF FUNGAL SPORES” (priority 2023, dated 2024).

For series [1] the following is noted: cited from earlier work.
The conditions of series [2]: cited from earlier work. The source holds these as a separate data set.
The subject of series [3] is white flies. The note with it: spores of C. fumosorosea supplemented with low concentrations of the acid in the spray liquid; PCT/EP2022/086495; cited from earlier work.
Series [4] relates to Bemisia tabaci. Briefly: Insecticidal activity against white flies on single-leaf cotton plants, spray application (Example 1, spores of C. javanica strain Apopka 97). The format is in vivo. Further details: expected control (Colby) less than the observed level of control: concentration or dose not given beside the values. The conditions noted are these: for expected control (Colby) less than the observed level of control: in composition with 1,0E+07 spores/ml C. javanica Apopka 97; for Abbott efficacy: spores 1,0E+07 s/ml, cotton, twelve days after treatment, control pure water; for White fly mortality: composition of spores and salt compared with spores alone or the salt alone.

Series [5] has as its system Bemisia tabaci. Briefly: Insecticidal activity against white flies on bean plants (Phaseolus vulgaris), microsprayer application (Example 2, spores of C. javanica strain GF 511). It is filed as in vivo.
Method: For testing insecticidal activity against white flies, 9-day-old plants (Phaseolus vulgaris cv. Pérola) with two primary leaves grown with Oxisol (2 L) with fertilizer NPK 5-30-15 were kept in a screenhouse covered with a fine screen fabric (50 mesh). Adult-infested plants with Bemisia tabaci were shaken and placed next to pest-free bean plants (9 days old with two primary leaves) for 6 to 8h to allow oviposition. This exposure provided more than 200 eggs per leaf. Afterwards the plants were transferred to a clean and insect-free room and incubated at 25°C until hatching and development of immobile N2 nymphal stages (10 to 12 days after infestation). Per treatment, seven pots with four bean plants in the two-leave stage were used as biological replicates. The experiment was conducted in a randomized block design in five screenhouse benches, one for each repetition, with the treatments randomized within the block.
Before spraying, whitefly nymphs were checked for good coverage on the leaves and the infected plants were sprayed with the prepared solutions as detailed above. […] The amount is adjusted in function of the size of the primary leaves in order to ensure a good coverage. Afterwards, the plants are incubated under controlled conditions (30 °C and 40 % RH). Fourteen days after treatment, one plant/pot (two leaves per treatment) were destructively evaluated for insect mortality. Nymphal mortality was assessed under a dissecting stereomicroscope (Leica) at x40 magnification. For confirming the fungal infection, a small red dot was marked on the leaf next to the dead nymphs. The leaves were then incubated inside Gerbox box with a wet cotton added to the leaf petiole for four days at room temperature. The dead marked nymphs presenting sporulation (i.e., mycosed nymphs) were considered infected by the fungus.
Setting [6] is: Table 2, citric acid 0,05%, ammonium citrate di-basic 0,06%, potassium citrate 0,08%.
The mark [7] stands for this setting: Table 1, citric acid 0,1%, glutamic acid monosodic salt 0,08%.

Consider `O=C(O)C=C(CC(=O)O)C(=O)O` [Aconitic acid], for which the “water solubility (g/l) at room temperature” value (shortened to “water solubility (g/l)”) in series [1] is 400 g/L (≈ 2300 mM). The “pka(1)” value in series [2] was 2,8.
On to `O=C(O)c1cccnc1C(=O)O` [Chinolinic acid], for which, in series [1], the “water solubility (g/l)” value is 10 g/L (≈ 59.8 mM).
As for `O=C(O)c1cccc(C(=O)O)n1` [Dipicolinic acid], the “efficacy of this entomopathogenic fungus against white flies” value in series [3] was “increase the efficacy”.
For `O=C(O)c1ccc(C(=O)O)nc1` [Isocinchomeronic acid], the “pka(1)” value in series [2] is 2,31.
Take `O=C(O)CC(C(=O)O)C(O)C(=O)O` (stereo not shown) [Isocitric acid]: the “water solubility (g/l)” value in series [1] was 53 g/L (≈ 276 mM).
Regarding `CC[C@H](C)[C@H](N)C(=O)O` [Isoleucine], in series [2], the “pka(1)” value is recorded as 2,32.
`O=C(O)c1ccnc(C(=O)O)c1` [Lutidinic acid]: in series [2], the “pka(1)” value is 2,17.
As to `O=C(O)CC(O)C(=O)O` (stereo not shown) [Malic acid], in series [1], the “water solubility (g/l)” value is 558 g/L (≈ 4160 mM).
As for `N[C@@H](Cc1ccccc1)C(=O)O` [Phenylalanine], the “water solubility (g/l)” value in series [1] is >10 g/L.
Consider `O=C(O)c1ccccn1` [Picolinic acid], for which the “water solubility (g/l)” value in series [1] is 887 g/L (≈ 7200 mM). In addition, the “pka(1)” value in series [2] was 5,39.
Take `N[C@@H](C[SeH])C(=O)O` [Selenocysteine]: the “water solubility (g/l)” value in series [1] was 400 g/L (≈ 2380 mM).
As for `N[C@@H](Cc1c[nH]c2ccccc12)C(=O)O` [Tryptophan], the “water solubility (g/l)” value in series [1] is 11,4 g/l. Further, the “pka(1)” value in series [2] is 2,46.
Consider `CC(C)[C@H](N)C(=O)O` [Valine], for which the “pka(1)” value in series [2] was 2,39.
As to `O=C(O)CCC(=O)C(=O)O` [alpha-ketoglutaric acid], the “water solubility (g/l)” value in series [1] was 100 g/L (≈ 684 mM).
Take `N.N.O=C(O)CC(O)(CC(=O)O)C(=O)O` [ammonium citrate di-basic]: in series [4] (Table 2), the “expected control (Colby) less than the observed level of control” value (from here on “expected control”) is recorded as 27,89%. Moreover, in series [4] (setting [6]), the Abbott efficacy is 6,34. In series [4], the White fly mortality entry is “significantly and synergistically higher”.
`O=C(O)CC(O)(CC(=O)O)C(=O)O` [citric acid, Citric acid, reference compound]: the Abbott efficacy in series [5] (Table 3, spores 1,0E+07 s/ml, citric acid 0,05%, glutamic acid monosodium salt 0,08%, all with 0,05% Tween, bean plants, fourteen days after treatment, control Tween 80 (0.05% v/v)) is 3.56; in series [4] (setting [7]), 9,86; in series [4] (setting [6]), 7,88. Further, the “efficacy of this entomopathogenic fungus against white flies” value in series [3] is listed as “increase the efficacy”. Also, the figures for the “expected control” value in series [4] (Table 1) and in series [4] (Table 2) were 11,63% and 24,27%, respectively.
On to `N[C@@H](CCC(=O)O)C(=O)[O-].[Na+]` [glutamic acid monosodic salt, glutamic acid monosodium salt], for which the Abbott efficacy in series [5] is 7,57; in series [4] (setting [7]) it was -0,34. In addition, the “expected control” value is given as 11,03% in series [5] and 26,44% in series [4] (Table 1). In addition, the White fly mortality result in series [4] was “significantly and synergistically higher”.
Regarding `O=C([O-])CC(O)(CC(=O)[O-])C(=O)[O-].[K+].[K+].[K+]` [potassium citrate], in series [4] (Table 2), the “expected control” value was 11,7%. The Abbott efficacy in series [4] (setting [6]) was 1,74. Further, the White fly mortality result in series [4] was “significantly and synergistically higher”.
